Series [1] can be described thus: AUC (0 to 6 hrs) in rat at 0.5 mg/kg, iv. The settings on record: in vivo. It is filed as ADME, organism-based. The arrangement: time < 6 hr, dose 0.5 mg/kg, route intravenous.
The nature of series [2]: Intrinsic clearance in rat hepatocytes assessed per million cells. Type of series: ADME, cell-based, Hepatocyte. The note with it: read-out: CLH.
Series [3] has as its target T1, Prostaglandin D2 receptor 2 (Homo sapiens, UniProt Q9Y5Y4).
T1 sequence (Q9Y5Y4 whole entry): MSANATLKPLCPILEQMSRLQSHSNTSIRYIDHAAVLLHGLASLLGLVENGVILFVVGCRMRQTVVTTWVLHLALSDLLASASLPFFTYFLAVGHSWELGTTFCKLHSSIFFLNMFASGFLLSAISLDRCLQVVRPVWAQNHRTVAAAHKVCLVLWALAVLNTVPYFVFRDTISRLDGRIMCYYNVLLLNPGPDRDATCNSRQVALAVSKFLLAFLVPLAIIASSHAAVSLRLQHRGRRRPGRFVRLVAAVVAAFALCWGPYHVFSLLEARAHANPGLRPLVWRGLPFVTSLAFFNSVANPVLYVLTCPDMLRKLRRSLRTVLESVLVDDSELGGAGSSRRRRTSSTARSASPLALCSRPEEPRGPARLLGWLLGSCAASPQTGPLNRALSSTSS
Description: Antagonist activity at human CRTh2 expressed in CHOK1 cells assessed as inhibition of PGD2-induced beta-arrestin recruitment incubated for 30 mins followed by PGD2 stimulation measured after 60 mins by PathHunter based chemiluminescence assay

For series [4], the target named is T1, Prostaglandin D2 receptor 2. Description: biochemical.
Description: Displacement of [3H]PGD2 from human CRTh2 expressed in HEK cell membranes after 60 mins by scintillation counting method
Series [5] has the same target. This is another data set of the same source.
The nature of series [6]: AUC (0 to 6 hrs) in rat at 2 mg/kg, iv. It is filed as ADME, organism-based. The arrangement: time < 6 hr, dose 2 mg/kg, route intravenous. The note with it: in vivo.
The target in series [7] is T1, Prostaglandin D2 receptor 2. The series can be described thus: […] activity at human CRTh2 expressed in HEK cells assessed as forskolin-induced intracellular cAMP accumulation by ELISA based chemiluminescence assay. It is filed as functional, cell-based. A general note: Changes in cAMP serve as a functional read-out for many G protein-coupled receptors.

Each structure is given as a SMILES string.

By AUC(0-t) is commonly meant exposure summed from dosing to a finite time, without extrapolation to infinity. Low readings indicate less exposure, high ones more exposure. As usually defined, the IC50 is the concentration needed to halve the response being measured. One may read the Ki as a measure of affinity in units of concentration, obtained from inhibition or displacement. The low end stands for tighter binding, the high end for weaker binding. In turn, `O=C(O)CCC(=O)N(C1CC1)[C@H]1c2ccccc2N(C(=O)c2cccc(F)c2)[C@H]2CC[C@H]21` had an area under the curve AUC(0-t) at 6 h in series [1] of 0.3 µM·h. In addition, the hepatocyte CLint in series [2] is 16 µL/min/1e6 cells. For the same compound, 9.3 nM corresponded to half-maximal inhibition in series [3] (IC50). In series [4], this compound registered an inhibition constant (Ki) of 8.1 nM.
In the case of `O=C(O)COC(=O)N(C1CC1)[C@H]1c2ccccc2N(C(=O)c2ccc(OC(F)(F)F)cc2)[C@H]2CC[C@H]21`, the hepatocyte CLint in series [2] stood at 18 µL/min/1e6 cells. Moreover, the IC50 in series [5] was determined as 0.9 nM; in series [3] it was 1.4 nM. The compound also returned an inhibition constant Ki in series [4] of 2.5 nM.
Consider `O=C(O)CCC(=O)N(C1CC1)[C@H]1c2ccccc2N(C(=O)c2ccc(OC(F)(F)F)cc2)[C@H]2CC[C@H]21`, for which the hepatocyte CLint in series [2] came out at 13 µL/min/1e6 cells.
`O=C(O)CCC(=O)N(C1CC1)[C@H]1c2ccccc2N(C(=O)c2ccc(F)cc2)[C@H]2CC[C@H]21` registered an AUC(0-t) at 6 h in series [1] of 0.46 µM·h. For the same compound, the hepatocyte CLint in series [2] is 14 µL/min/1e6 cells. Besides, the IC50 in series [5] was determined as 20 nM; in series [3] it was 12 nM. In series [4], the affinity corresponds to a Ki of 7.3 nM.
In turn, `O=C(O)CCC(=O)N(C1CC1)[C@H]1c2ccccc2N(C(=O)OCc2ccc(F)cc2)[C@H]2CCC[C@H]21` gave an area under the curve AUC(0-t) at 6 h in series [1] of 0.27 µM·h. Moreover, the inhibition constant (Ki) in series [4] stood at 12 nM.
Take `O=C(O)COC(=O)N(C1CC1)[C@H]1c2ccccc2N(C(=O)c2ccc(F)cc2)[C@H]2CC[C@H]21`: the hepatocyte CLint in series [2] is 13 µL/min/1e6 cells. The figures for the IC50 in series [5] and in series [3] were 2 nM and 1.4 nM, respectively. This compound also had an inhibition constant Ki in series [4] of 3.5 nM.
Turning to `O=C(O)CCC(=O)N(C1CC1)[C@H]1c2ccccc2N(C(=O)c2ccc(OC(F)(F)F)cc2)[C@H]2CCCC21` (single isomer, unassigned), the AUC(0-t) at 6 h in series [1] came to 0.62 µM·h. Further, in series [4], the Ki is 7 nM.
As to `C[C@@H](OC(=O)N1c2ccccc2[C@H](N(C(=O)CCC(=O)O)C2CC2)[C@@H]2CCC[C@@H]21)c1ccc(F)cc1`, the AUC(0-t) at 6 h in series [1] came out at 0.63 µM·h.
For the compound `O=C(O)COC(=O)N(C1CC1)[C@H]1c2ccccc2N(C(=O)c2cccc(F)c2)[C@H]2CC[C@H]21`, the hepatocyte CLint in series [2] was 20 µL/min/1e6 cells. Also, the half-maximal inhibitory concentration (IC50) in series [5] turned out to be 0.8 nM; in series [3] it was 1.1 nM. In addition, in series [4], the inhibitory constant (Ki) was 4.1 nM.
Regarding `O=C(O)CCC(=O)N(C1CC1)[C@H]1c2ccc(Cl)cc2N(C(=O)c2ccc(OC(F)(F)F)cc2)[C@H]2CCC[C@H]21`, the half-inhibitory concentration (IC50) in series [5] is 110 nM; in series [3] it was 59 nM. This compound registered an inhibitory constant (Ki) in series [4] of 2.3 nM.
In turn, `O=C(O)CCC(=O)N(C1CC1)[C@H]1c2cc(F)ccc2N(C(=O)c2ccc(SC(F)(F)F)cc2)[C@H]2CCC[C@H]21` registered an area under the curve AUC(0-t) at 6 h in series [6] of 1.87 µM·h. Further, the half-maximal inhibitory concentration (IC50) came to 12 nM in series [5] and 2.4 nM in series [3]. Moreover, in series [4], the inhibition constant Ki is 8.4 nM.
The compound `C[C@H](OC(=O)N1c2ccccc2[C@H](N(C(=O)CCC(=O)O)C2CC2)[C@@H]2CCC[C@@H]21)c1ccc(F)cc1` registered an area under the curve AUC(0-t) at 6 h in series [1] of 0.32 µM·h.
In series [5], `O=C(O)CCC(=O)N(C1CC1)C1c2ccccc2N(C(=O)c2ccccc2)C2CCCC21` (racemic) had an IC50 of 41 nM. The same compound returned a Ki in series [4] of 10 nM.
In the same order, the values of `O=C(O)CCC(=O)N(C1CC1)C1c2ccccc2N(C(=O)OCc2ccccc2)C2CCC21` (racemic) are 210 nM and 25 nM.
In the case of `O=C(O)CCC(=O)N(C1CC1)[C@H]1c2cc(F)c(Cl)cc2N(C(=O)c2ccc(OC(F)(F)F)cc2)[C@H]2CCC[C@H]21`, the exposure AUC(0-t) at 6 h in series [1] came out at 1.05 µM·h. Further, the figures for the IC50 in series [5] and in series [3] were 18 nM and 12 nM, respectively. The Ki in series [4] was determined as 3.4 nM.
Regarding `O=C(O)CCC(=O)N(C1CC1)[C@H]1c2ccc(F)cc2N(C(=O)c2ccc(OC(F)(F)F)cc2)[C@H]2CCC[C@H]21`, in series [1], the AUC(0-t) at 6 h turned out to be 0.043 µM·h.
Take `O=C(O)CCC(=O)N(C1CC1)[C@H]1c2ccccc2N(C(=O)c2cccc(OC(F)(F)F)c2)[C@H]2CC[C@H]21`: the AUC(0-t) at 6 h in series [1] amounted to 0.31 µM·h. Moreover, in series [2], the hepatocyte CLint worked out at 15 µL/min/1e6 cells. Moreover, the half-inhibitory concentration (IC50) in series [3] was 43 nM. For the same compound, affinity in series [4] was put at a Ki of 5 nM.
For orientation: EC50 means the concentration needed to bring the measured effect to its halfway point. On to `CCN(c1nc(C(=O)O)cs1)[C@H]1c2ccccc2N(C(=O)OCc2ccccc2)[C@H]2CCC[C@@H]12`, for which, in series [7], the EC50 was 12 nM. It took 2920 nM to reach half-maximal inhibition in series [5] (IC50). In series [4], the affinity corresponds to a Ki of 51 nM.

(Values after ChEMBL document CHEMBL4196118, “Discovery of MK-8318, a Potent and Selective CRTh2 Receptor Antagonist for the Treatment of Asthma” (ACS Med Chem Lett, 2018).)
